Data published in PubChem BioAssay (NCI).
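GI50 is the concentration that inhibits growth by half. TGI denotes the concentration required for complete inhibition of growth.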

Assays:
Experiment in all cases: NCI-60 cell line screen, 384-well format
HL-60(TB) leukemia = system: HL-60(TB) leukemia
UACC-62 melanoma = system: UACC-62 melanoma
OVCAR-3 ovarian = system: OVCAR-3 ovarian
IGROV1 ovarian = system: IGROV1 ovarian
SR leukemia = system: SR leukemia
KM12 colon = system: KM12 colon
PC-3 prostate = system: PC-3 prostate
CCRF-CEM leukemia = system: CCRF-CEM leukemia
HOP-92 NSCLC = system: HOP-92 NSCLC
786-0 renal = system: 786-0 renal
MCF7 breast = system: MCF7 breast
MOLT-4 leukemia = system: MOLT-4 leukemia
NCI-H23 lung = system: NCI-H23 lung
HCT-116 colon = system: HCT-116 colon
BT-549 breast = system: BT-549 breast
HCT-15 colon = system: HCT-15 colon
SN12C renal = system: SN12C renal
U251 glioblastoma = system: U251 glioblastoma
COLO 205 colon = system: COLO 205 colon
SW-620 colon = system: SW-620 colon
OVCAR-5 ovarian = system: OVCAR-5 ovarian
RPMI-8226 leukemia = system: RPMI-8226 leukemia
NCI/ADR-RES ovarian = system: NCI/ADR-RES ovarian
UO-31 renal = system: UO-31 renal
SNB-19 CNS = system: SNB-19 CNS
EKVX NSCLC = system: EKVX NSCLC
TK-10 renal = system: TK-10 renal
SK-MEL-5 melanoma = system: SK-MEL-5 melanoma
MALME-3M melanoma = system: MALME-3M melanoma
NCI-H226 lung = system: NCI-H226 lung
MDA-MB-435 melanoma = system: MDA-MB-435 melanoma
SK-MEL-2 melanoma = system: SK-MEL-2 melanoma
OVCAR-4 ovarian = system: OVCAR-4 ovarian
SNB-75 CNS = system: SNB-75 CNS
HOP-62 NSCLC = system: HOP-62 NSCLC
MDA-MB-468 breast = system: MDA-MB-468 breast
HCC-2998 colon = system: HCC-2998 colon
MDA-MB-231 breast = system: MDA-MB-231 breast
LOX IMVI melanoma = system: LOX IMVI melanoma
SF-539 CNS = system: SF-539 CNS
SF-295 CNS = system: SF-295 CNS
T-47D breast = system: T-47D breast
SK-MEL-28 melanoma = system: SK-MEL-28 melanoma
OVCAR-8 ovarian = system: OVCAR-8 ovarian
CAKI-1 renal = system: CAKI-1 renal
RXF 393 renal = system: RXF 393 renal
M14 melanoma = system: M14 melanoma

Q: What does the source list for `CC#CC(=O)N1CC[C@@H](n2c(=O)n(-c3ccc(Oc4ccccc4)cc3)c3c(N)ncnc32)C1`?
A: GI50 (HL-60(TB) leukemia): 13.9 µM; TGI (HL-60(TB) leukemia): 26.9 µM; GI50 (UACC-62 melanoma): 22.8 µM; TGI (UACC-62 melanoma): > 100 µM; GI50 (OVCAR-3 ovarian): 14.3 µM; TGI (OVCAR-3 ovarian): 31.3 µM; GI50 (IGROV1 ovarian): 16.8 µM; TGI (IGROV1 ovarian): 37.4 µM; GI50 (SR leukemia): 5.69 µM; TGI (SR leukemia): 18.6 µM; GI50 (KM12 colon): 27.4 µM; TGI (KM12 colon): > 76.8 µM; GI50 (PC-3 prostate): 35.1 µM; TGI (PC-3 prostate): > 100 µM; GI50 (CCRF-CEM leukemia): 11.4 µM; TGI (CCRF-CEM leukemia): 23.7 µM; GI50 (HOP-92 NSCLC): 13.4 µM; TGI (HOP-92 NSCLC): > 59.6 µM; GI50 (786-0 renal): 23 µM; TGI (786-0 renal): 66.1 µM; TGI (MCF7 breast): 80.6 µM; GI50 (MOLT-4 leukemia): 3.13 µM; TGI (MOLT-4 leukemia): 12.7 µM; GI50 (NCI-H23 lung): 30.9 µM; TGI (NCI-H23 lung): 99.6 µM; GI50 (HCT-116 colon): 22.1 µM; TGI (HCT-116 colon): 54.8 µM; GI50 (BT-549 breast): 16.6 µM; TGI (BT-549 breast): 33.9 µM; GI50 (HCT-15 colon): 28.6 µM; TGI (HCT-15 colon): > 89.5 µM; GI50 (SN12C renal): 20.2 µM; TGI (SN12C renal): > 90.9 µM; GI50 (U251 glioblastoma): 18.1 µM; TGI (U251 glioblastoma): 40.3 µM; GI50 (COLO 205 colon): 37.1 µM; TGI (COLO 205 colon): > 100 µM; GI50 (SW-620 colon): 25.6 µM; TGI (SW-620 colon): 55.9 µM; GI50 (OVCAR-5 ovarian): > 64.3 µM; TGI (OVCAR-5 ovarian): > 100 µM; GI50 (RPMI-8226 leukemia): 7.89 µM; TGI (RPMI-8226 leukemia): 23 µM; GI50 (NCI/ADR-RES ovarian): 15.7 µM; TGI (NCI/ADR-RES ovarian): 41.3 µM; GI50 (UO-31 renal): 31.8 µM; TGI (UO-31 renal): > 100 µM; GI50 (SNB-19 CNS): 23.3 µM; TGI (SNB-19 CNS): > 64.3 µM; GI50 (EKVX NSCLC): 20.7 µM; TGI (EKVX NSCLC): > 77.2 µM; GI50 (TK-10 renal): 36.5 µM; TGI (TK-10 renal): > 100 µM; GI50 (SK-MEL-5 melanoma): 17.7 µM; TGI (SK-MEL-5 melanoma): 47 µM; GI50 (MALME-3M melanoma): 37.2 µM; TGI (MALME-3M melanoma): > 100 µM; GI50 (NCI-H226 lung): 21.8 µM; TGI (NCI-H226 lung): > 74.4 µM; GI50 (MDA-MB-435 melanoma): 30 µM; TGI (MDA-MB-435 melanoma): > 80.4 µM; GI50 (SK-MEL-2 melanoma): 18.1 µM; TGI (SK-MEL-2 melanoma): 34.7 µM; GI50 (OVCAR-4 ovarian): 29.5 µM; TGI (OVCAR-4 ovarian): > 100 µM; GI50 (SNB-75 CNS): 28.6 µM; TGI (SNB-75 CNS): 77.2 µM; GI50 (HOP-62 NSCLC): 21.3 µM; TGI (HOP-62 NSCLC): 61.8 µM; GI50 (MDA-MB-468 breast): 10.1 µM; TGI (MDA-MB-468 breast): 24.5 µM; GI50 (HCC-2998 colon): 24.5 µM; TGI (HCC-2998 colon): 49.4 µM; GI50 (MDA-MB-231 breast): 22 µM; TGI (MDA-MB-231 breast): > 67.8 µM; GI50 (LOX IMVI melanoma): 18.8 µM; TGI (LOX IMVI melanoma): 36.2 µM; GI50 (SF-539 CNS): 21.6 µM; TGI (SF-539 CNS): 53.6 µM; GI50 (SF-295 CNS): 40.5 µM; TGI (SF-295 CNS): > 100 µM; GI50 (T-47D breast): 11.9 µM; TGI (T-47D breast): 33.1 µM; GI50 (SK-MEL-28 melanoma): 68.3 µM; TGI (SK-MEL-28 melanoma): > 100 µM; GI50 (OVCAR-8 ovarian): 27.6 µM; TGI (OVCAR-8 ovarian): > 100 µM; GI50 (CAKI-1 renal): 23.5 µM; TGI (CAKI-1 renal): > 100 µM; GI50 (RXF 393 renal): 13.4 µM; TGI (RXF 393 renal): 32.2 µM; GI50 (M14 melanoma): 22.7 µM; TGI (M14 melanoma): 50.1 µM
